Assays:
rat orexin 1 receptor = rat orexin 1 receptor (Rattus norvegicus, UniProt P56718); assay: Rat orexin 1 receptor radioligand binding; details: rat orexin 1 receptor; averages of 2-20 runs; read-out: rOX1 Ki
Summary of the method: (§1)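 Ki values derive from one-site competition IC50s corrected with the radioligand's predetermined Kd, triplicates per run, averaged over 2-20 runs. Cell homogenates (rat or human OX1R) compete against [^3H]-thiazolyl-oxadiazolyl-pyrrolidine methanone in PBS; 10 μM almorexant sets nonspecific binding; scintillation counting after washing.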

human orexin 2 receptor = human orexin 2 receptor (Homo sapiens (Human), UniProt O43614); assay: Human orexin 2 receptor radioligand binding; details: human orexin 2 receptor; averages of 2-20 runs; read-out: hOX2 Ki
Summary of the method: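 Ki derived from one-site competition IC50 using predetermined Kd of [3H]-EMPA, triplicate points, 2-20 runs averaged. Binding done on homogenized HEK293 cells stably expressing human orexin 2 receptor, DMSO ≤0.1%, with 10 μM almorexant defining nonspecific binding; filtered, washed, scintillation counted.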

human orexin 1 receptor = human orexin 1 receptor (Homo sapiens, UniProt O43613); assay: Human orexin 1 receptor radioligand binding; details: human orexin 1 receptor; averages of 2-20 runs; read-out: hOX1 Ki
Summary of the method: as §1

Sequence of human orexin 2 receptor (O43614 whole entry): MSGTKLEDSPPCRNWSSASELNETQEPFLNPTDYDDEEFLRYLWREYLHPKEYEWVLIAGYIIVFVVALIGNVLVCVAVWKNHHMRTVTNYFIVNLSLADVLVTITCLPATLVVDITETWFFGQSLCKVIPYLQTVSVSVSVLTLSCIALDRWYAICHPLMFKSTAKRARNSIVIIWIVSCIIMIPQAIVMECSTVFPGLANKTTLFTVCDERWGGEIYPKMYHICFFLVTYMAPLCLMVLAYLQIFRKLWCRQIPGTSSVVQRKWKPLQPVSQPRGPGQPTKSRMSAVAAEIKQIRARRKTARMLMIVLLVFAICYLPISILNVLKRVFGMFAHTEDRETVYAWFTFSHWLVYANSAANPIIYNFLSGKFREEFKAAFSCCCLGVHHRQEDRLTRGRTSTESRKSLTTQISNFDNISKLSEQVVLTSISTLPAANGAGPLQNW

Ki (rat orexin 1 receptor) [nM]	Ki (human orexin 2 receptor) [nM]	Ki (human orexin 1 receptor) [nM]	Compound
28	218	30	Cc1ccc(-n2nccn2)c(C(=O)N2C[C@H]3C[C@@H](Oc4ccc(C(F)F)cn4)[C@@H]2C3)n1 [Example 122, ((1S,4R,6R)-6-((5-(difluoromethyl)pyridin-2-yl)oxy)-2-azabicyclo[2.2.1]heptan-2-yl)(6-methyl-3-(2H-1,2,3-triazol-2-yl)pyridin-2-yl)methanone]
11	149	10	O=C(c1cccc(F)c1-c1ncccn1)N1C[C@H]2C[C@@H](Oc3ccc(C(F)F)cn3)[C@@H]1C2 [Example 123, ((1S,4R,6R)-6-((5-(difluoromethyl)pyridin-2-yl)oxy)-2-azabicyclo[2.2.1]heptan-2-yl)(3-fluoro-2-(pyrimidin-2-yl)phenyl)methanone]
200	4500	109	O=C(c1cc(F)ccc1-n1nccn1)N1C[C@H]2C[C@@H](Oc3cnc(C(F)(F)F)cn3)[C@@H]1C2 [Example 124, (5-fluoro-2-(2H-1,2,3-triazol-2-yl)phenyl)((1S,4R,6R)-6-((5-(trifluoromethyl)pyrazin-2-yl)oxy)-2-azabicyclo[2.2.1]heptan-2-yl)methanone]
220	5500	88	Cc1ccc(-n2nccn2)c(C(=O)N2C[C@H]3C[C@@H](Oc4cnc(C(F)(F)F)cn4)[C@@H]2C3)n1 [Example 125, (6-methyl-3-(2H-1,2,3-triazol-2-yl)pyridin-2-yl)((1S,4R,6R)-6-((5-(trifluoromethyl)pyrazin-2-yl)oxy)-2-azabicyclo[2.2.1]heptan-2-yl)methanone]
27	4200	22	O=C(c1cccc(F)c1-c1ncccn1)N1C[C@H]2C[C@@H](Oc3cnc(C(F)(F)F)cn3)[C@@H]1C2 [Example 126, (3-fluoro-2-(pyrimidin-2-yl)phenyl)((1S,4R,6R)-6-((5-(trifluoromethyl)pyrazin-2-yl)oxy)-2-azabicyclo[2.2.1]heptan-2-yl)methanone]
116	> 10000	143	O=C(c1ccc(F)cc1-c1ncccn1)N1C[C@H]2C[C@@H](Oc3cnc(C(F)(F)F)cn3)[C@@H]1C2 [Example 127, (4-fluoro-2-(pyrimidin-2-yl)phenyl)((1S,4R,6R)-6-((5-(trifluoromethyl)pyrazin-2-yl)oxy)-2-azabicyclo[2.2.1]heptan-2-yl)methanone]
69	3800	62	O=C(c1cc(F)ccc1-c1ncccn1)N1C[C@H]2C[C@@H](Oc3cnc(C(F)(F)F)cn3)[C@@H]1C2 [Example 128, (5-fluoro-2-(pyrimidin-2-yl)phenyl)((1S,4R,6R)-6-((5-(trifluoromethyl)pyrazin-2-yl)oxy)-2-azabicyclo[2.2.1]heptan-2-yl)methanone]
53	4400	47	O=C(c1c(F)cccc1-c1ncccn1)N1C[C@H]2C[C@@H](Oc3cnc(C(F)(F)F)cn3)[C@@H]1C2 [Example 129, (2-fluoro-6-(pyrimidin-2-yl)phenyl)((1S,4R,6R)-6-((5-(trifluoromethyl)pyrazin-2-yl)oxy)-2-azabicyclo[2.2.1]heptan-2-yl)methanone]
29	3500	27	O=C(c1ccccc1-c1ncccn1)N1C[C@H]2C[C@@H](Oc3cnc(C(F)(F)F)cn3)[C@@H]1C2 [Example 130, (2-(pyrimidin-2-yl)phenyl)((1S,4R,6R)-6-((5-(trifluoromethyl)pyrazin-2-yl)oxy)-2-azabicyclo[2.2.1]heptan-2-yl)methanone]
140	2200	132	Cc1cnc(O[C@@H]2C[C@H]3C[C@@H]2N(C(=O)c2ccccc2-n2nccn2)C3)nc1 [Example 131, (2-(2H-1,2,3-triazol-2-yl)phenyl)((1S,4R,6R)-6-((5-methylpyrimidin-2-yl)oxy)-2-azabicyclo[2.2.1]heptan-2-yl)methanone]
60	4200	102	Cc1cnc(O[C@@H]2C[C@H]3C[C@@H]2N(C(=O)c2cccc(F)c2-c2ncccn2)C3)nc1 [Example 133, (3-fluoro-2-(pyrimidin-2-yl)phenyl)((1S,4R,6R)-6-((5-methylpyrimidin-2-yl)oxy)-2-azabicyclo[2.2.1]heptan-2-yl)methanone]
61	1200	100	CCc1cnc(O[C@@H]2C[C@H]3C[C@@H]2N(C(=O)c2ccccc2-n2nccn2)C3)nc1 [Example 135, (2-(2H-1,2,3-triazol-2-yl)phenyl)((1S,4R,6R)-6-((5-ethylpyrimidin-2-yl)oxy)-2-azabicyclo[2.2.1]heptan-2-yl)methanone]
39	1700	65	CCc1cnc(O[C@@H]2C[C@H]3C[C@@H]2N(C(=O)c2cccc(F)c2-c2ncccn2)C3)nc1 [Example 137, ((1S,4R,6R)-6-((5-ethylpyrimidin-2-yl)oxy)-2-azabicyclo[2.2.1]heptan-2-yl)(3-fluoro-2-(pyrimidin-2-yl)phenyl)methanone]
208	3700	150	O=C(c1ccccc1-n1nccn1)N1C[C@H]2C[C@@H](Oc3ccc(C(F)(F)F)nn3)[C@@H]1C2 [Example 139, (2-(2H-1,2,3-triazol-2-yl)phenyl)((1S,4R,6R)-6-((6-(trifluoromethyl)pyridazin-3-yl)oxy)-2-azabicyclo[2.2.1]heptan-2-yl)methanone]
208	> 10000	348	O=C(c1cccc(F)c1-c1ncccn1)N1C[C@H]2C[C@@H](Oc3ccc(C(F)(F)F)nn3)[C@@H]1C2 [Example 141, (3-fluoro-2-(pyrimidin-2-yl)phenyl)((1S,4R,6R)-6-((6-(trifluoromethyl)pyridazin-3-yl)oxy)-2-azabicyclo[2.2.1]heptan-2-yl)methanone]
24	7300	34	Cc1ccc(C(=O)N2C[C@H]3C[C@@H](Nc4ccc(C(F)(F)F)cn4)[C@@H]2C3)c(-n2nccn2)n1 [Example 143, (6-methyl-2-(2H-1,2,3-triazol-2-yl)pyridin-3-yl)((1S,4S,6R)-6-((5-(trifluoromethyl)pyridin-2-yl)amino)-2-azabicyclo[2.2.1]heptan-2-yl)methanone]
3	133	3	O=C(c1cccc(F)c1-n1nccn1)N1C[C@H]2C[C@@H](Nc3ccc(C(F)(F)F)cn3)[C@@H]1C2 [Example 144, (3-fluoro-2-(2H-1,2,3-triazol-2-yl)phenyl)((1S,4S,6R)-6-((5-(trifluoromethyl)pyridin-2-yl)amino)-2-azabicyclo[2.2.1]heptan-2-yl)methanone]
17	934	7	O=C(c1ccc(F)cc1-n1nccn1)N1C[C@H]2C[C@@H](Nc3ccc(C(F)(F)F)cn3)[C@@H]1C2 [Example 145, (4-fluoro-2-(2H-1,2,3-triazol-2-yl)phenyl)((1S,4S,6R)-6-((5-(trifluoromethyl)pyridin-2-yl)amino)-2-azabicyclo[2.2.1]heptan-2-yl)methanone]
6	150	3	O=C(c1c(F)cccc1-n1nccn1)N1CC2CC(Nc3ccc(C(F)(F)F)cn3)C1C2 [Example 146, (2-fluoro-6-(2H-1,2,3-triazol-2-yl)phenyl)((1S,4S,6R)-6-((5-(trifluoromethyl)pyridin-2-yl)amino)-2-azabicyclo[2.2.1]heptan-2-yl)methanone]
5	190	6	O=C(c1c(F)cccc1-c1ncccn1)N1C[C@H]2C[C@@H](Nc3ccc(C(F)(F)F)cn3)[C@@H]1C2 [Example 147, (2-fluoro-6-(pyrimidin-2-yl)phenyl)((1S,4S,6R)-6-((5-(trifluoromethyl)pyridin-2-yl)amino)-2-azabicyclo[2.2.1]heptan-2-yl)methanone]
3	189	5	O=C(c1ccccc1-c1ncccn1)N1C[C@H]2C[C@@H](Nc3ccc(C(F)(F)F)cn3)[C@@H]1C2 [Example 148, (2-(pyrimidin-2-yl)phenyl)((1S,4S,6R)-6-((5-(trifluoromethyl)pyridin-2-yl)amino)-2-azabicyclo[2.2.1]heptan-2-yl)methanone]
14	4600	7	Cc1cnc(C(=O)N2C[C@H]3C[C@@H](Nc4ccc(C(F)(F)F)cn4)[C@@H]2C3)c(-c2ncccn2)c1 [Example 149, (5-methyl-3-(pyrimidin-2-yl)pyridin-2-yl)((1S,4S,6R)-6-((5-(trifluoromethyl)pyridin-2-yl)amino)-2-azabicyclo[2.2.1]heptan-2-yl)methanone]
13	88	9	Cc1ccc(-c2ncccn2)c(C(=O)N2C[C@H]3C[C@@H](Nc4ccc(C(F)(F)F)cn4)[C@@H]2C3)n1 [Example 150, (6-methyl-3-(pyrimidin-2-yl)pyridin-2-yl)((1S,4S,6R)-6-((5-(trifluoromethyl)pyridin-2-yl)amino)-2-azabicyclo[2.2.1]heptan-2-yl)methanone]
21	5100	47	Cc1cnc(-c2ncccn2)c(C(=O)N2C[C@H]3C[C@@H](Nc4ccc(C(F)(F)F)cn4)[C@@H]2C3)c1 [Example 151, (5-methyl-2-(pyrimidin-2-yl)pyridin-3-yl)((1S,4S,6R)-6-((5-(trifluoromethyl)pyridin-2-yl)amino)-2-azabicyclo[2.2.1]heptan-2-yl)methanone]

Source: patent US9611277B2 (Janssen Pharmaceutica NV, priority 2013, dated 2017)
